# In patent publication US8367313B2, “Method of determining sperm capacitation” (Cornell University, priority 2003, dated 2013):
# “Also recorded” adds a separate entry of the source. Read-outs that look alike come from different tables or passages of the source.
# Key:
# murine sperm = test: Protein tyrosine phosphorylation / capacitation of sperm; assay type: cell-based, mouse
# [1] = test system: GM1 localization in murine sperm; assay type: cell-based, mouse
# [2] = test system: sterols in sperm plasma membrane; details: exposure of sperm to sterol acceptor; cited from earlier work
# [3] = incubation with the stimulus alone
# [4] = Fixative A: 0.004% paraformaldehyde, mouse sperm
# [5] = Fixative B: 1.25% paraformaldehyde, 2.5% glutaraldehyde, 100 mM sodium cacodylate, 0.5 mM CaCl2
# [6] = Fixative C: 4% paraformaldehyde, 0.1% glutaraldehyde, 1 mM CaCl2
molecule,measurement,setting,value
[Ca+2] [Ca^++],ability to cause tyrosine phosphorylation or capacitation,murine sperm; [3],not sufficient
O=C([O-])O.[Na+] [NaHCO3],ability to cause tyrosine phosphorylation or capacitation,murine sperm,not sufficient
same,GM1 staining localization after exposure to stimulus,[1],staining was observed in the apical acrosome and post-acrosomal region
same,sperm with Pattern D (diffuse),[1],3.2%
CC(=O)[C@H]1CC[C@H]2[C@@H]3CCC4=CC(=O)CC[C@]4(C)[C@H]3CC[C@]12C [progesterone],GM1 staining localization after induction of acrosomal exocytosis,"[1]; after capacitating incubation (bicarbonate and 2-OHCD), then progesterone 10 μg/ml for 10 minutes",a signal over the apical acrosome alone; also recorded: concentrated in the region of the apical acrosome
(2-hydroxypropyl)-β-cyclodextrin [2-OHCD],effect on filipin-sterol complexes (FSC),[2],loss of most FSC from the plasma membrane overlying the acrosome
same,ability to cause tyrosine phosphorylation or capacitation,murine sperm; [3],not sufficient
same,"shift in CTb labeling pattern (FIG. 3/FIG. 4 patterns A, B, C)","[1]; 45 minute incubation, 10 mM HCO3− or 3 mM 2-OHCD, 0.004% paraformaldehyde",shifts to pattern “C.”
same,sperm with Pattern A (acrosomal),[1]; [4],Ns
same,sperm with Pattern AA/PA (apical acrosome and post-acrosomal),[1]; [4],28.8%
same,sperm with Pattern D (diffuse),[1]; [4],40.4%
same,sperm with Pattern PA (post-acrosomal),[1]; [4],37.9%
same,sperm with Pattern D (diffuse),"[1]; Fixative A: 0.004% paraformaldehyde, mouse sperm, listed as cyclodextrin",approximately 40%
same,sperm with Pattern A (acrosomal),[1]; [5],41.8%
same,sperm with Pattern AA/PA (apical acrosome and post-acrosomal),[1]; [5],0%
same,sperm with Pattern D (diffuse),[1]; [5],0%
same,sperm with Pattern PA (post-acrosomal),[1]; [5],58.2%
same,sperm with Pattern A (acrosomal),[1]; [6],80.5%
same,sperm with Pattern AA/PA (apical acrosome and post-acrosomal),[1]; [6],0.2%
same,sperm with Pattern D (diffuse),[1]; [6],0%
same,sperm with Pattern PA (post-acrosomal),[1]; [6],19.4%
same,GM1 staining localization after exposure to stimulus,[1]; sperm fixed with 0.004% paraformaldehyde,a signal in the plasma membrane overlying the acrosome as well as in the post-acrosomal region
bovine serum albumin [BSA],effect on filipin-sterol complexes (FSC),[2],loss of most FSC from the plasma membrane overlying the acrosome
